# Laboratory results published in patent US8710070B2, “Opioid-ketamine and norketamine codrug combinations for pain management” (University of Kentucky Research Foundation, priority 2008, dated 2014).
# Several values for one entry are separate records, joined by “and”; a condition that tells them apart may be missing. Equal values may be shown once. Read-outs that look alike come from different tables or passages of the source.
# Key:
# [1] = test system: Male Rats; conditions: individual rats
# Method: • 1) Solution MOR 3 mg/ul (the same Mor. […] 1) • 2) (+) Norketamine 3 mg/ml dose 3 mg/kg inj.
# • TFL—intensity 40%, idle activity 5%, cut-off 10 sec.
# • TFL—Intensity 40%, idle activity 5%, cut-off 10 sec.
# • TFL—Intensity 40%, idle activity 5%, cut-off 10 seconds Solutions:
# [2] = C. S. T. Aun, 1999, cited from earlier work
# [3] = test system: NMDA receptor; conditions: Ebert et al., 1997; cited from earlier work
smiles,measurement,setting,value
"CN1CC[C@]23c4c5ccc(O)c4O[C@H]2[C@@H](O)C=C[C@H]3[C@H]1C5 [Morphine, morphine]",TFL 15 min.,"[1]; Day 1, male rats 5-8, MOR 3 mg/kg + SAL or (+) Norket 3 mg/kg, 15 min after injection, listed as MOR",3.24 s and 3.55 s
same,TFL 30 min.,"[1]; Day 1, male rats 5-8, MOR 3 mg/kg + SAL or (+) Norket 3 mg/kg, 30 min after injection, listed as MOR",5.72 s and 6.2 s
same,TFL 60 min.,"[1]; Day 1, male rats 5-8, MOR 3 mg/kg + SAL or (+) Norket 3 mg/kg, 60 min after injection, listed as MOR",1.93 s and 4.50 s
same,TFL 120 min.,"[1]; Day 1, male rats 5-8, MOR 3 mg/kg + SAL or (+) Norket 3 mg/kg, 120 min after injection, listed as MOR",1.61 s and 5.44 s
same,TFL 15 min.,"[1]; Day 2, male rats 1-4, Mor 3 mg/kg & (−) Norketamine 3 mg/kg or saline, 15 min, cut-off 10 sec, listed as Mor",2.03 s and 4.89 s
same,TFL 30 min.,"[1]; Day 2, male rats 1-4, Mor 3 mg/kg & (−) Norketamine 3 mg/kg or saline, 30 min, cut-off 10 sec, listed as Mor",2.74 s and 7.26 s
same,TFL 60 min.,"[1]; Day 2, male rats 1-4, Mor 3 mg/kg & (−) Norketamine 3 mg/kg or saline, 60 min, cut-off 10 sec, listed as Mor",1.94 s and 6.84 s
same,TFL 120 min.,"[1]; Day 2, male rats 1-4, Mor 3 mg/kg & (−) Norketamine 3 mg/kg or saline, 120 min, cut-off 10 sec, listed as Mor",1.48 s and 5.37 s
same,TFL 15 min.,"[1]; Day 2, male rats 5-8, 3 mg/kg Mor & 3 mg/kg (+) Norketamine or saline, 15 min, cut-off 10 sec, listed as Mor",3.41 s and 3.48 s
same,TFL 30 min.,"[1]; Day 2, male rats 5-8, 3 mg/kg Mor & 3 mg/kg (+) Norketamine or saline, 30 min, cut-off 10 sec, listed as Mor",4.09 s and 3.22 s
same,TFL 60 min.,"[1]; Day 2, male rats 5-8, 3 mg/kg Mor & 3 mg/kg (+) Norketamine or saline, 60 min, cut-off 10 sec, listed as Mor",4.03 s and 3.01 s
same,TFL 120 min.,"[1]; Day 2, male rats 5-8, 3 mg/kg Mor & 3 mg/kg (+) Norketamine or saline, 120 min, cut-off 10 sec, listed as Mor",2.94 s and 2.12 s
same,TFL 15 min.,"[1]; second series, Day 1, male rats 1-4, 3 mg/kg Morphine & saline or 3 mg/kg (−) Norketamine, 15 min, cut-off 10 sec",2.92 s and 1.82 s
same,TFL 30 min.,"[1]; second series, Day 1, male rats 1-4, 3 mg/kg Morphine & saline or 3 mg/kg (−) Norketamine, 30 min, cut-off 10 sec",3.64 s and 2.36 s
same,TFL 60 min.,"[1]; second series, Day 1, male rats 1-4, 3 mg/kg Morphine & saline or 3 mg/kg (−) Norketamine, 60 min, cut-off 10 sec",3.28 s and 3.30 s
same,TFL 120 min.,"[1]; second series, Day 1, male rats 1-4, 3 mg/kg Morphine & saline or 3 mg/kg (−) Norketamine, 120 min, cut-off 10 sec",2.74 s and 1.92 s
same,TFL 15 min.,"[1]; second series, Day 1, male rats 5-8, 3 mg/kg Morphine & saline or 3 mg/kg (+) Norketamine, 15 min, cut-off 10 sec",2.97 s and 2.88 s
same,TFL 30 min.,"[1]; second series, Day 1, male rats 5-8, 3 mg/kg Morphine & saline or 3 mg/kg (+) Norketamine, 30 min, cut-off 10 sec",2.75 s and 3.86 s
same,TFL 60 min.,"[1]; second series, Day 1, male rats 5-8, 3 mg/kg Morphine & saline or 3 mg/kg (+) Norketamine, 60 min, cut-off 10 sec",3.51 s and 3.69 s
same,TFL 120 min.,"[1]; second series, Day 1, male rats 5-8, 3 mg/kg Morphine & saline or 3 mg/kg (+) Norketamine, 120 min, cut-off 10 sec",2.70 s and 2.17 s
same,TFL 15 min.,"[1]; second series, Day 2, male rats 5-8, 3 mg/kg Morphine & 3 mg/kg (+) Norketamine or saline, 15 min, cut-off 10 seconds",2.25 s and 1.56 s
same,TFL 30 min.,"[1]; second series, Day 2, male rats 5-8, 3 mg/kg Morphine & 3 mg/kg (+) Norketamine or saline, 30 min, cut-off 10 seconds",2.46 s and 1.97 s
same,TFL 60 min.,"[1]; second series, Day 2, male rats 5-8, 3 mg/kg Morphine & 3 mg/kg (+) Norketamine or saline, 60 min, cut-off 10 seconds",3.83 s and 2.08 s
same,TFL 120 min.,"[1]; second series, Day 2, male rats 5-8, 3 mg/kg Morphine & 3 mg/kg (+) Norketamine or saline, 120 min, cut-off 10 seconds",2.60 s and 2.24 s
"NC1(c2ccccc2Cl)CCCCC1=O (stereo not drawn) [Norketamine, 2-(2-chlorophenyl)-2-amino-cyclohexanone]",anesthetic and analgesic potency relative to ketamine,[2]; speculated,one third that of ketamine
same,binding to the NMDA receptor relative to S- and R-ketamine,[3],less tightly than either S- or R-ketamine
CN[C@]1(c2ccccc2Cl)CCCCC1=O [S-ketamine],potency relative to R-ketamine,[2],twice as potent as R-ketamine
